From US8252294B2, “Methods of screening for compounds that inhibit the biosynthesis of GPI in malaria parasites” (Eisai R&D Management Co., Ltd., priority 2002, dated 2012)

Assays:
[1] = system: P. falciparum FCR3 strain; experiment: Antimalarial activity in red blood cell culture system (infection rate by Giemsa staining); format: cell-based; conditions: human red blood cells infected with P. falciparum FCR3, 48 hours, Giemsa staining (FIG. 3)
Protocol: Specifically, a test compound was dissolved in 100% DMSO, diluted with a medium, and an 80 μl aliquot of the dilution was added to each well of a 96-well culture plate. P. falciparum FCR3 strain was pre-cultured in RPMI1640 medium containing 10% human serum at 37° C., and then 20 μl of the cultured cells (containing 10% red blood cells) was added to each well. At this time, 0.47% of red blood cells were infected. After culturing under 5% O2, 5% CO2, and 90% N2 at 37° C. for 48 hours, the malaria parasites were stained using Giemsa staining. The number of protozoan-infected red blood cells was determined in order to estimate infection rate (FIG. 3).

ScGWT1-expressing yeast = experiment: Growth inhibition of GWT1-disrupted yeast expressing S. cerevisiae GWT1 (pGAP-ScGWT1), culture turbidity; format: cell-based; conditions: for culture turbidity at 660 nm: pGAP-ScGWT1 yeast, 30° C., two days
Protocol: (§1) An expression cassette was constructed by inserting the S. cerevisiae GWT1 terminator, and the S. cerevisiae GAPDH promoter and multi-cloning site into the SacI-KpnI site of the single-copy vector pRS316. S. cerevisiae GWT1 and opfGWT1 were inserted into the multi-cloning site to prepare pGAP-ScGWT1 and pGAP-opfGWT1 plasmids, respectively. These plasmids were introduced into the GWT1 disruptant. Serial two-fold dilutions of compound (1) were prepared using YPAD to make the highest final concentration 50 μg/ml. A 50 μl aliquot of the diluted compound was added to each well of a 96-well plate. Overnight cultures of yeast cells comprising each plasmid were diluted 1000-fold and then a 50 μl aliquot of the dilution was added to each well. The plates were incubated at 30° C. for two days, and then culture turbidity was determined at 660 nm (FIG. 2 and Table 1).

opfGWT1-expressing yeast = experiment: Growth inhibition of GWT1-disrupted yeast expressing opfGWT1 (pGAP-opfGWT1), culture turbidity; format: cell-based, S. cerevisiae; conditions: for culture turbidity at 660 nm: pGAP-opfGWT1 yeast, 30° C., two days
Protocol: as §1

Row | SMILES | antimalarial activity (infection rate of red blood cells) [1] | inhibition at 25 µg/mL (ScGWT1-expressing yeast; Saccharomyces cerevisiae, ScGWT1-expressing yeast, compound at 25 μg/ml) [%] | viability of yeast (ScGWT1-expressing yeast; ScGWT1-expressing yeast, compound at 50 μg/ml) | culture turbidity at 660 nm (ScGWT1-expressing yeast; compound 6.25 μg/ml) | culture turbidity at 660 nm (ScGWT1-expressing yeast; compound 12.5 μg/ml) | culture turbidity at 660 nm (ScGWT1-expressing yeast; compound 25 μg/ml) | culture turbidity at 660 nm (ScGWT1-expressing yeast; compound 50 μg/ml) | inhibition at 25 µg/mL (opfGWT1-expressing yeast; Saccharomyces cerevisiae, opfGWT1-expressing yeast, compound at 25 μg/ml) [%] | viability of yeast (opfGWT1-expressing yeast; opfGWT1-expressing yeast, compound at 50 μg/ml) | culture turbidity at 660 nm (opfGWT1-expressing yeast; compound 6.25 μg/ml) | culture turbidity at 660 nm (opfGWT1-expressing yeast; compound 12.5 μg/ml) | culture turbidity at 660 nm (opfGWT1-expressing yeast; compound 25 μg/ml) | culture turbidity at 660 nm (opfGWT1-expressing yeast; compound 50 μg/ml)
1 | CCCCc1ccc(Cc2nccc3ccccc23)c(O)c1 [compound (3), 5-butyl-2-(1-isoquinolylmethyl) phenol] | strong antimalarial activity | – | – | – | – | – | – | – | – | – | – | – | –
2 | COc1cccnc1Cc1ccc(Br)cc1F [compound (4), 2-(4-bromo-2-fluorobenzyl)-3-methoxypyridine] | lowest activity | – | – | – | – | – | – | – | – | – | – | – | –
3 | CCCCc1ccc(Cc2nccc3ccccc23)cc1 [compound (1), 1-(4-butylbenzyl) isoquinoline] | – | ~85 | completely nonviable | 0.7370 | 0.6670 | 0.1140 | 0.0420 | ~50 | completely nonviable | 0.6990 | 0.6910 | 0.3630 | 0.0530
